Measured values reported in patent US20100216847A1, “N[…] THE TREATMENT OF PAIN” (UNIVERSITY OF KENTUCKY RESEARCH FOUNDATION, priority 2006, published 2010).

Key:
[1] = following peripheral administration of nicotine; cited from earlier work
[2] = following repeated nicotine dosing; cited from earlier work
[3] = in vivo; cited from earlier work
[4] = humans; cited from earlier work
[5] = system: rodent model of nociceptive pain (paw withdrawal test); test: Thermal paw withdrawal test after intraperitoneal administration; assay type: in vivo, rat; details: male rats, 2.5, 5 and 10 mg/kg IP, free base, n=8; P<0.05 1-way ANOVA
Description: To further characterize the analgesic properties of S(−)nornicotine, a dose-response relationship was determined. Responsiveness to acute thermal noxious stimuli was assessed by a thermal paw withdrawal test [Hargreaves K. et al., “A new sensitive method for measuring thermal nociception in cutaneous hyperalgesia” Pain (1988) 32:77-88]. This test, which uses a ramp heat stimulus on the plantar surface of the paw, appears to generate more consistent analgesic responses to nicotinic drugs as compared to tail flick test. Plantar Stimulator Analgesia Meter (11TC, Life Science, Woodland Hills, Calif.) was used. Briefly, the rat was placed in a clear plastic chamber and allowed to acclimate for 5 min. After the acclimation period, the radiant heat was positioned under the glass floor directly beneath the plantar hind paw. The heat source activated a timer that was controlled by a photocell. The hind paw withdrawal interrupted the photocell and automatically stopped the timer. Latency to paw withdrawal (PWL) was measured to the nearest 0.1 s. […]
S(−)-Nornicotine was administered in three doses (2.5, 5 and 10 mg/kg in form of free base) via the IP route in 8 male rats. […] Responses (PWL, s) were measured prior to and at 5, 10, 15, 30, and 60 min after IP injection. For each rat and at each time point, response was normalized for baseline measured on the day of experiment. […]

[6] = system: rodent model of chronic inflammatory pain (formalin test); test: Formalin test (intra-plantar formalin) after intraperitoneal administration; assay type: in vivo, rat; details: male rats, 5 mg/kg IP fumarate salt, 15 min prior to formalin, n=6; for formalin-induced flinching, late (tonic) phase 20-60 min: significantly different from saline P<0.05
Description: A study was performed to screen the analgesic activities of S(−) and R(+) enantiomers of nornicotine following administration by intraperitoneal route (IP) in a rodent model of chronic inflammatory pain (formalin test). Intra-plantar injection of formalin produces a biphasic behavioral response consisting of flinching, lifting and licking behaviors in rodents. The first phase (acute, 0-20 min) results from direct stimulation of nociceptors (nociceptive pain) whereas the second phase (tonic, 20-60 min) involves central sensitization (a characteristic of neuropathic pain). Accordingly, the formalin test was used to determine the analgesic effects of S(−)- and R(+)-nornicotine [Wheeler-Aceto H., Covan A. “Standardization of the rat formalin test for the evaluation of analgesics” Psychopharmacology (1991) 104:35-44]. Formalin (50 mcl) was injected subcutaneously (SC) into the dorsal surface of the hind paw. The rat was placed in a Plexiglas cage and the intensity of pain (number of formalin-induced flinches) was rated in 5 min intervals for 60 min.
A single dose [5 mg/kg in salt form (fumarate)] of each nornicotine enantiomer and saline (control) was administered (IP) 15 min prior to formalin (SC) injection in 6 male rats. Data were presented as time courses of formalin-induced flinches (number) for S(−)-nornicotine, R(+)-nornicotine and saline [FIG. 4A] and areas under the curves (AUC) calculated for phase 1 (acute, 0-20 min) [FIG. 4B] and phase 2 (tonic, 20-60 min) [FIG. 4C].

[7] = system: rodent model of nociceptive pain (tail-flick test); test: Tail-flick test after intraperitoneal administration; assay type: in vivo, rat; details: male Sprague-Dawley rats, 5 mg/kg IP single dose, perchlorate salt, vs saline, n=6; preliminary data
Description: A study was performed to screen the analgesic activities of S(−) and R(+) enantiomers of nornicotine following administration by intraperitoneal route (IP) in a rodent model of nociceptive pain. The responses to acute thermal stimuli were determined using the tail-flick test [D′Amour F. E., Smith D. L. “A method for determining loss of pain sensation” J Pharmacol Exp Ther (1941), 72:74-79]. Tail-flick latency (TFL) was measured by recording the time from the onset of the heat stimulus to the tail to withdrawal of the tail from the heat source, using a standard tail-flick apparatus (EMDIE, Instrument Co., Roanoke, Va.). The sensitivity of the instrument was adjusted to provide an average baseline 2-3 seconds. Cut-off time of 10 s was used to avoid tail damage.
A single dose [5 mg/kg in perch salt form (perchlorate)] of each nornicotine enantiomer was administered (IP) in 6 male rats [Sprague-Dawley; about 90 days old, 350 g, (Harlan, Indianapolis, Ind.)]. Saline (vehicle, 1 ml/kg) served as control. TFL were determined prior to (twice, 15 min apart) and at 5, 15, 30, 45 and 60 min after i.p. administration. Data were presented as time courses of TFL (normalized for pre-injection baseline, s) [FIG. 1A] and areas under the curves (AUC0-60min) [FIG. 1B].

[8] = system: rodent model of nociceptive pain (tail-flick test); test: Tail-flick test after intrathecal administration; assay type: in vivo, rat; details: male rats, 10 mcg IT single dose, perchlorate salt, n=5, P<0.05 post-hoc SNK
Description: A study was performed to screen the analgesic activities of S(−) and R(+) enantiomers of nornicotine following administration by intrathecal route (IT) in a rodent model of nociceptive pain (tail-flick test).
In order to inject these drugs via the IT route chronic catheterization of the spinal subarachnoid space was performed in rats [Yaksh T., Rudy T. “Chronic catheterization of the spinal subarachnoid space” Physiol Behav (1976) 17:1031-1036 (with minor modification)]. Briefly, a 21 cm long P-10 polyethylene tubing (volume 10 mcl) which extended 8.5 cm beyond an incision in the atlanto-occipital membrane was secured to the scull with acrylic cement. The catheter rested in the vicinity of T-12 at the rostral face of the lumbar cord enlargement. The studies were initiated 1 week after implantation of the IT catheter.
A single dose [10 mcg in perch salt form (perchlorate)] of each enantiomer was administered (IT) in 5 male rats. Saline (vehicle; 10 mcl) was used as control. The responses to acute thermal stimuli were determined using the tail-flick test (baseline 2-3 seconds, cut-off 10 seconds). TFL were measured prior to (twice, 15 min apart) and at 5, 10, 15, 30, 45 and 60 min after IT administration. Data were presented as time courses of TFL (normalized for pre-injection baseline, s) [FIG. 2A] and areas under the curves (AUC0-60min) [FIG. 2B].

Molecule | residence in the rat's brain [1] | accumulation in brain compared to nicotine [2] | oral bioavailability (in words) [3] | plasma half-life [4] | oral bioavailability [3] | analgesic effect (paw withdrawal latency, AUC0-60min vs log dose) [5] | formalin-induced flinching, early (acute) phase 0-20 min [6] | formalin-induced flinching, late (tonic) phase 20-60 min [6] | analgesic effect (tail-flick latency, AUC0-60min) [7] | potency and toxicity profile compared to R(+)-nornicotine (Dose escalation studies) | analgesic effect (tail-flick latency, AUC0-60min) vs the other enantiomer [8] | analgesic effect (tail-flick latency, AUC0-60min) vs saline ([8]; preliminary data)
Nornicotine | 166 min | about 4 fold | good oral bioavailability | 8 h |  |  |  |  |  |  |  | 
CN1CCCC1c1cccnc1 (centres unmarked) [nicotine, reference compound] | 52 min |  |  | 1 h | 10% |  |  |  |  |  |  | 
c1cncc([C@@H]2CCCN2)c1 [S(−)-nornicotine] |  |  |  |  |  | significantly related to dose | Neither enantiomer had significant effect | attenuated formalin-induced flinching | significantly greater as compared to saline | more favorable potency and toxicity profile | significantly greater as compared to R(+)-nornicotine | significantly greater as compared to saline
c1cncc([C@H]2CCCN2)c1 [R(+)-nornicotine] |  |  |  |  |  |  | Neither enantiomer had significant effect | attenuated formalin-induced flinching | less pronounced |  |  | 
